Where two headings read alike, the source gives them in different places.
Legend:
human CatL = target: T1, human CatL (Homo sapiens, UniProt P07711); assay: fluorogenic Z-Phe-Arg-AMC hydrolysis; format: biochemical
T1 construct: gene CTSL; commercial cathepsin L (Calbiochem)

human GLP-1R [1] = target: T2, human GLP-1R (Homo sapiens, UniProt P43220); assay: HTRF cAMP accumulation, HEK293 cells; format: cell-based
T2 construct: gene GLP1R; full-length receptor expressed in HEK293 cells; C347A mutant carries a 1xFLAG tag
T2 sequence (P43220 24-463): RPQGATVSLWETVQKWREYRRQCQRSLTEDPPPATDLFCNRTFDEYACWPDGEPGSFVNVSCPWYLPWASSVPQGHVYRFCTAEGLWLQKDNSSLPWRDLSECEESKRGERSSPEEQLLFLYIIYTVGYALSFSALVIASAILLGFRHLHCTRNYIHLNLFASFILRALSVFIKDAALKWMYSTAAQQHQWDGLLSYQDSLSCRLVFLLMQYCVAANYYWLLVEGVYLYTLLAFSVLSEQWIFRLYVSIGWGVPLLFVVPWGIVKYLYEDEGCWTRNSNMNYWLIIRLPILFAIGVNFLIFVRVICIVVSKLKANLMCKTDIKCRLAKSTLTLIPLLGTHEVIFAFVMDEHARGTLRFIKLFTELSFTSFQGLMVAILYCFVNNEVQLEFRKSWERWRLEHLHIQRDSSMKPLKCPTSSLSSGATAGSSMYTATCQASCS
From the text: (§1) HTRF cAMP accumulation, HEK293 cells on human GLP-1R

human GLP-1R [2] = target: T3, human GLP-1R (Homo sapiens, UniProt P43220, C347A); assay: HTRF cAMP accumulation, HEK293 cells; format: cell-based
T3 construct: gene GLP1R; full-length receptor expressed in HEK293 cells; C347A mutant carries a 1xFLAG tag
T3 sequence (P43220 24-463 C347A): as the sequence (P43220 24-463) above, with C324A counted along it
From the text: as §1

human GLP-1R [3] = target: T2, human GLP-1R; assay: anti-FLAG immunoprecipitation, PAGE fluorography; format: cell-based; settings: 500 nM [3H]BETP, 2 h, 37 °C, GLP-1R-3xFLAG in HEK293; covalent; labelled compound
[4] = read-out: Compound, EC50 WT (nM) (S.D., n)
[5] = read-out: EC50, C347A (nM) (S.D., n)
[6] = read-out: Compound, EC50, WT (nM) (S.D., n)
[7] = read-out: Compound, EC50, C347A (nM) (S.D., n)

T1 sequence (P07711 114-288 limits assumed): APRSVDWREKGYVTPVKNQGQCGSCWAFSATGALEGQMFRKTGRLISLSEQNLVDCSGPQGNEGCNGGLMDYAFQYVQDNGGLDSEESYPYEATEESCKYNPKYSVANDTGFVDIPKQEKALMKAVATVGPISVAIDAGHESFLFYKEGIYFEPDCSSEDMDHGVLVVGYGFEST
T1 sequence (P07711 292-333 limits assumed): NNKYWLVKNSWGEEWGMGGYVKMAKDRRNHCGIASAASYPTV

| SMILES | IC50 (human CatL; read-out: CatL,^c IC50) [µM] | EC50 (human GLP-1R [1]; [4]) [nM] | EC50 (human GLP-1R [2]; [5]) [nM] | EC50 (human GLP-1R [2]; [7]) [nM] | other results |
| --- | --- | --- | --- | --- | --- |
| CC[S+]([O-])c1nc(-c2cccc(OCc3ccccc3)c2)cc(C(F)(F)F)n1 (centres unmarked) [BETP, 4-(3-benzyloxyphenyl)-2-ethylsulfinyl-6-(trifluoromethyl)pyrimidine] | > 33 | 1300 | > 30000 | – | anti-FLAG immunoprecipitation, PAGE fluorography (human GLP-1R [3]): The finding that [^3H]BETP irreversibly labels the GLP-1R |
| O=C(NCc1ccccc1)[C@H](Cc1ccccc1)NC(=O)[C@H]1O[C@@H]1C(=O)NCCc1ccc(O)cc1 [CAA0225, (2S,3S)-N2-[(1S)-1-benzyl-2-(benzylamino)-2-oxo-ethyl]-N3-[2-(4-hydroxyphenyl)ethyl]oxirane-2,3-dicarboxamide, reference compound] | – | – | – | – | IC50 (human CatL; read-out: IC50): 0.006 µM |
| Cc1nnc(Sc2nc3cc(Cl)c(Cl)cc3nc2C(F)(F)F)s1 [compound 1] | – | 860 | > 30000 | – | – |
| CC(C)(C)Nc1nc2cc(Cl)c(Cl)cc2nc1S(C)(=O)=O [compound 2] | – | 25 | > 30000 | – | – |
| FC(F)(F)c1nc2cc(Cl)c(Cl)cc2nc1Cl [compound 3] | – | 4700 | > 30000 | – | – |
| CC1(C)CC(=O)c2c(S(C)(=O)=O)sc(-c3nnc(-c4ccc(C(C)(C)C)cc4)o3)c2C1 [compound 5] | – | 1500 | > 30000 | – | – |
| CC1(C)CC(=O)c2c(S(C)(=O)=O)sc(C(=O)c3ccc(-c4ccccc4)cc3)c2C1 [compound 6] | – | 1430 | > 30000 | – | – |
| FC(F)(F)c1nc2ccccc2nc1Sc1ccc(Cl)cc1 [compound 7] | – | > 30000 | – | – | – |
| O=C(Oc1cccc(-c2cn3cc(C(F)(F)F)cc(Cl)c3n2)c1)C1CCCCC1 [compound 8] | – | > 30000 | – | – | – |
| Cc1ccc(-c2cccc(C(=O)NC(Cc3ccc(-c4noc(-c5ccc(NC(=O)OC(C)(C)C)cc5)n4)c(F)c3)C(=O)O)c2)cc1 (centres unmarked) [compound 9] | – | 1500 | 1400 | – | – |
| Clc1nc2c(-c3ccccc3)nnn2c2ccccc12 [compound 11] | > 33 | – | – | > 30000 | EC50 (human GLP-1R [1]; [6]): 7000 nM |
| CS(=O)(=O)c1nc(-c2ccccc2)cc(-c2ccccc2)c1C#N [compound 12] | > 33 | – | – | > 30000 | EC50 (human GLP-1R [1]; [6]): 6000 nM |
| CCOC(=O)c1ccc(N2Cc3ccccc3C(=Cc3ccc(Br)cc3)C2=N)cc1 [compound 13] | > 33 | – | – | > 30000 | EC50 (human GLP-1R [1]; [6]): 1000 nM |
| Clc1nc2ccc3nsnc3c2nc1Cl [compound 14] | > 33 | – | – | > 30000 | – |
| O=S(=O)(c1ccccc1)c1nc(-c2ccccc2)ns1 [compound 15] | 25 | – | – | > 30000 | EC50 (human GLP-1R [1]; [6]): 1300 nM |
| CS(=NC(=O)Nc1ccc(Cl)cc1)c1sc(Cl)c2c1C(=O)CCC2 (centres unmarked) [compound 16] | 12 | – | – | > 30000 | EC50 (human GLP-1R [1]; [6]): 5200 nM |
| O=[N+]([O-])c1ccc2nc(S(=O)(=O)c3ccc(Cl)cc3)sc2c1 [compound 17] | 8 | – | – | > 30000 | – |
| CC(=O)NC1=C(Cl)C(=O)c2ccccc2C1=O [compound 18] | – | – | – | > 30000 | – |
| O=C1C=CC(=O)N1c1cccc(C(F)(F)F)c1 [compound 19] | – | – | – | > 30000 | – |
| CCSc1nc(-c2cccc(OCc3ccccc3)c2)cc(C(F)(F)F)n1 [th-BETP, 4-(3-benzyloxyphenyl)-2-ethylsulfanyl-6-(trifluoromethyl)pyrimidine] | – | > 30000 | – | – | – |

Reference: publication PMC4865917, “Positive Allosteric Modulation of the Glucagon-like Peptide-1 Receptor by Diverse Electrophiles” (The Journal of Biological Chemistry, 2016)
